In PMC12406196, “Anticoronavirus Activity of Uridine Glycoconjugates Containing a 1,2,3-Triazole Moiety” (Journal of Medicinal Chemistry, 2025):
Entries after “also recorded” stand apart in the source; their conditions may differ.

How the values were obtained:
[1] = tested on: human coronavirus strain NL63 (HCoV-NL63); assay: HCoV-NL63 N protein expression in LLC-Mk2 cells, Western blot and densitometry; type: cell-based; conditions: 50 μM, MOI 0.01, 4 days p.i., Western blot/densitometry
Procedure: LLC-Mk2 monolayers grown in 24-well plates were infected with HCoV-NL63 at an MOI value of 0.01 for 2 h. Unbound virus was removed, and cells were cultured in medium supplemented with different concentrations of compounds. Four days postinfection, cells were collected and lysed in CellLyticM Cell Lysis Reagent (Sigma). Following the protein separation by SDS-PAGE and transfer to PVDF membranes, proteins were immunoblotted using specific mouse anti-N NL63 Abs (Eurofins, Spain) or rabbit anti-β-catenin Abs (Santa Cruz), followed by antimouse or antirabbit secondary antibodies conjugated with HRP. Proteins were visualized and analyzed by chemiluminescence using the UVITEC Cambridge Alliance MINI HD detection system. The densitometric analysis of cells treated with 50 μM dose of a panel of glycoconjugates was performed based on three biological replicates of N and β-catenin immunoblots. The N protein levels were expressed as a percentage relative to DMSO-treated infected cells, while β-catenin levels were expressed as a percentage relative to noninfected control cells. The data were presented as the ratio of N/β-catenin for each sample, normalized accordingly.

[2] = tested on: LR7 cells; assay: MTS-based cell viability assay in LR7 cells; parameters: species or system mouse; conditions: 50 μM, uninfected LR7 cells
Procedure: LR7, LLC-Mk2 or Vero cells were seeded in 96-well plates and cultured overnight. Next, the medium was changed to a new one supplemented with different concentrations (in triplicate) of analyzed compounds. Following the 2 days (LR7 and Vero) or 4 days (LLC-Mk-2) of incubation, CellTiter 96 AQueous nonradioactive cell proliferation assay (Promega) was performed according to the manufacturer’s instruction. The half-maximal cytotoxic concentration (CC50) was calculated as the concentration of a compound needed to reduce cell viability by 50% using GraphPad Prism software (version 5.01, GraphPad Software, San Diego, CA).

[3] = tested on: murine hepatitis virus strain A59 (MHV); assay: Reduction of MHV cytopathic effect (CPE) in LR7 cells, MTS/PMS readout; type: cell-based; conditions: 50 μM, MOI 0.01, 24 h
Procedure: LR7 cells were seeded in a 96-well plate and cultured overnight. Next, the cells were infected with MHV at an MOI value of 0.01 in medium without FBS. Following 1 h of incubation, the medium containing the virus was collected and cells were covered with a medium supplemented with different concentrations (in triplicate) of the analyzed compounds or DMSO. 24 h p.i. cells viability was evaluated by CellTiter 96 AQueous nonradioactive cell proliferation assay (Promega) according to the manufacturer’s instruction.

[4] = tested on: SARS-CoV-2 replicon; type: cell-based

SMILES | HCoV-NL63 N protein level [1] | reduction of cell viability (cytotoxicity in uninfected cells) [2] | protection against MHV-induced CPE [3] | inhibition of SARS-CoV-2 replication (replicon) [4]
CC(=O)OC[C@H]1O[C@@H](NC(=O)Cn2cc(CNC(=O)[C@H]3O[C@@H](n4ccc(=O)[nH]c4=O)[C@H](O[Si](C)(C)C(C)(C)C)[C@@H]3O[Si](C)(C)C(C)(C)C)nn2)[C@H](OC(C)=O)[C@@H](OC(C)=O)[C@@H]1OC(C)=O [Compound 18, N-Uracil [((1-(2-oxo-(2″,3″,4″,6″-tetra-O-Acetyl-β-D-glucopyranosyl)-amino)-ethyl)-1,2-3-triazol-4-yl)-methyl]-1′-deoxy-2′,3′-di-O-tert-butyldimethylsilyl-β-D-ribofuranuronamide] | No significant reduction | 10–30% | limited anti-MHV activity | 
CC(=O)OC[C@H]1O[C@@H](OCCn2cc(CNC(=O)[C@H]3O[C@@H](n4ccc(=O)[nH]c4=O)[C@H](O[Si](C)(C)C(C)(C)C)[C@@H]3O[Si](C)(C)C(C)(C)C)nn2)[C@H](OC(C)=O)[C@@H](OC(C)=O)[C@@H]1OC(C)=O [Compound 16, N-Uracil [(1-(2″,3″,4″,6″-tetra-O-Acetyl-β-D-glucopyranosyloxyethyl)-1,2-3-triazol-4-yl)-methyl]-1′-deoxy-2′,3′-di-O-tert-butyldimethylsilyl-β-D-ribofuranuronamide] | No significant reduction | 10–30% |  | 
CC(=O)OC[C@H]1O[C@@H](NC(=O)Cn2cc(CNC(=O)[C@H]3O[C@@H](n4ccc(=O)[nH]c4=O)[C@H](O[Si](C)(C)C(C)(C)C)[C@@H]3O[Si](C)(C)C(C)(C)C)nn2)[C@H](OC(C)=O)[C@@H](OC(C)=O)[C@H]1OC(C)=O [Compound 19, N-Uracil [((1-(2-oxo-(2″,3″,4″,6″-tetra-O-Acetyl-β-D-galactopyranosyl)-amino)-ethyl)-1,2-3-triazol-4-yl)-methyl]-1′-deoxy-2′,3′-di-O-tert-butyldimethylsilyl-β-D-ribofuranuronamide] | No significant reduction | 10–30% | limited anti-MHV activity | 
CC(=O)OC[C@H]1O[C@@H](SCn2cc(CNC(=O)[C@H]3O[C@@H](n4ccc(=O)[nH]c4=O)[C@H](O[Si](C)(C)C(C)(C)C)[C@@H]3O[Si](C)(C)C(C)(C)C)nn2)[C@H](OC(C)=O)[C@@H](OC(C)=O)[C@@H]1OC(C)=O [Compound 22, N-Uracil [(1-(2″,3″,4″,6″-tetra-O-Acetyl-β-D-glucopyranosylthiomethyl)-1,2-3-triazol-4-yl)-methyl]-1′-deoxy-2′,3′-di-O-tert-butyldimethylsilyl-β-D-ribofuranuronamide] | No significant reduction | no detectable toxicity | significantly reduced cell death | 
CC(=O)OC[C@H]1O[C@@H](SCn2cc(CNC(=O)[C@H]3O[C@@H](n4ccc(=O)[nH]c4=O)[C@H](O[Si](C)(C)C(C)(C)C)[C@@H]3O[Si](C)(C)C(C)(C)C)nn2)[C@H](OC(C)=O)[C@@H](OC(C)=O)[C@H]1OC(C)=O [Compound 23, N-Uracil [(1-(2″,3″,4″,6″-tetra-O-Acetyl-β-D-galactopyranosylthiomethyl)-1,2-3-triazol-4-yl)-methyl]-1′-deoxy-2′,3′-di-O-tert-butyldimethylsilyl-β-D-ribofuranuronamide] | No significant reduction | 10–30% |  | 
CC(=O)OC[C@H]1O[C@@H](OCc2cn(C[C@H]3O[C@@H](n4ccc(=O)[nH]c4=O)[C@H](O[Si](C)(C)C(C)(C)C)[C@@H]3O[Si](C)(C)C(C)(C)C)nn2)[C@H](OC(C)=O)[C@@H](OC(C)=O)[C@@H]1OC(C)=O [Compound 14, 2′,3′-di-O-tert-Butyldimethylsilyl-5′-deoxy-5′-[4-(2″,3″,4″,6″-tetra-O-acetyl-β-D-glucopyranosyloxymethyl)-1,2-3-triazol-1-yl]-uridine] | significantly reduced; also recorded: weaker activity against HCoV-NL63 | 10–30% | significantly reduced cell death | 
CC(=O)OC[C@H]1O[C@@H](OCCn2cc(CNC(=O)[C@H]3O[C@@H](n4ccc(=O)[nH]c4=O)[C@H](O[Si](C)(C)C(C)(C)C)[C@@H]3O[Si](C)(C)C(C)(C)C)nn2)[C@H](OC(C)=O)[C@@H](OC(C)=O)[C@H]1OC(C)=O [Compound 17, N-Uracil [(1-(2″, 3″, 4″, 6″-tetra-O-Acetyl-β-D-galactopyranosyloxyethyl)-1,2-3-triazol-4-yl)-methyl]-1′-deoxy-2′,3′-di-O-tert-butyldimethylsilyl-β-D-ribofuranuronamide] | No significant reduction | 10–30% |  | 
CC(=O)OC[C@H]1O[C@@H](SCn2cc(COC[C@H]3O[C@@H](n4ccc(=O)[nH]c4=O)[C@H](O[Si](C)(C)C(C)(C)C)[C@@H]3O[Si](C)(C)C(C)(C)C)nn2)[C@H](OC(C)=O)[C@@H](OC(C)=O)[C@H]1OC(C)=O [Compound 25, 2′,3′-di-O-tert-Butyldimethylsilyl-5′-O-[(1-(2″,3″,4″,6″-tetra-O-acetyl-β-D-galactopyranosylthiomethyl)-1,2-3-triazol-4-yl)-methyl]-uridine] | significantly reduced; also recorded: No N protein was detected |  | lower activity against MHV | 
CC(C)(C)[C@H](NC(=O)C(F)(F)F)C(=O)N1C[C@H]2[C@@H]([C@H]1C(=O)N[C@H](C#N)C[C@@H]1CCNC1=O)C2(C)C [nirmatrelvir, reference compound] |  |  |  | inhibited SARS-CoV-2 replication
